Reference: US9241928B2, “Antimicrobial compounds” (The General Hospital Corporation, priority 2009, dated 2016)

Experiments:
Assay type in all cases: in vivo, Caenorhabditis elegans
[1] = tested on: C. elegans infected with E. faecalis; assay: Dose response time courses in the C. elegans-E. faecalis infection assay; conditions: Effective Concentration: survival significantly different from mock-treated, p-value <0.05, logrank; read-out: EC
Procedure: (§1) glp-4(bn2); sek-1 (km4) mutant worms were grown to gravid adult stage. 1,000 worms at the L1 stage were grown for 5.2 days at 15° C. on 9-cm plates of SK agar media spread with a lawn of E. coli strain HB101. Embryos from the gravid adults were isolated by a previously described hypochlorite method (see Tan et al., (1999) Proc. Natl. Acad. Sci. USA 96, 715-720) and hatched at 15° C. for 2 days. Approximately 4,500 of the Ll hatchlings were grown on each 9-cm plate of SK-NS agar (SK media with 62.5 U/ml nystatin and 100 μg/ml streptomycin) and with lawns of E. coli HB101. These worms were grown at 25° C. for 52 hours to generate sterile, young adults.
(§2) A culture of E. faecalis MMH594 was grown in BHI broth (BD Difco) with 80 μg/ml kanamycin at 37° C. for 6 hours and 100 μl of the culture were spread onto each 9-cm plate of BHI agar containing 80 μg/mlkanamycin. Lawns of E. faecalis were grown at 25° C. for 16 hours and transferred to 15° C. for 8 hours.
(§3) Sterile adult worms were resuspended in M9 buffer and washed twice with M9 in a 1:10 ratio to remove E. coli. 8,000 worms were pipetted onto each lawn of E. faecalis and incubated 15 hours at 15° C. After infection, the worms were resuspended in M9 and used as described below. 384-well plates (Corning #3712) were filled with 55 μl media (see below) using a Thermo Scientific MULTIDROP Combi reagent dispenser. 0.3 μl of a candidate compound in DSMO were pin transferred into each well using a CyBio CYBI-Well vario transfer system. The plates were agitated using an Eppendorf MIXMATE at 1,800 rpm for 15 seconds. Using the Union Biometrica Complex Object Parametric Analyzer and Sorter (COPAS) BIOSORT worm sorter according to manufacturer's protocols, 15 of the infected worms were transferred to each well in a total volume of approximately 15 μl. Total volume per well is 70 μl/well with a final composition of the media being 20% BHI, […], 80 μg/ml kanamycin, 62.5 U/ml nystatin, 1% DMSO, and 19% sheath solution (Union Biometrica Part #300-5101-000). Plates were vortexed for 5 seconds, centrifuged at 1000×g for 10 seconds, and sealed with gas permeable membranes (BREATHEASY Diversified). Plates were placed in a single layer on the top shelves in a 26.3° C. incubator at 85% relative humidity (RH) and incubated without agitation for 5 days.
The dose dependence of certain antimicrobial compounds identified by the assay above were studied. These compounds were purchased in a larger amount from commercial sources. For each of these compounds, an infection assay was performed essentially as described above at different concentrations except that SYTOX staining was not used. Instead, bright-field images of the wells were acquired at daily time points and scored manually for worm survival by analyzing worm body positioning. […] All compounds used in this assays were confirmed for their identity and purity by liquid chromatography/mass spectrometry.

clec-60::GFP = assay: Immune GFP reporter induction, transgene agIs26; conditions: compound-exposed versus DMSO-exposed animals, visual
Text: Caenorhabditis elegans strains were maintained on Escherichia coli OP50 as described in Brenner, Genetics, 1974, 77:71-94. Wildtype N2 nematodes carrying integrated transgenes acIs219 (AU78), acIs101(AY101), agIs17(AU133), or agIs26 (AU185) (see (1) Shivers, et al., PLoS. Genet. 2010, 6: e1000892, (2) Bolz et al., J. Biol. Chem. 2010, 285:10832-40, (3) Estes et al., Proc. Natl. Acad. Sci., 2010, 107:2153-8, and (4) Irazoqui et al., Proc. Natl. Acad. Sci., 2008, 105:17469-74) were used to assay the immunomodulatory activity of candidate compounds. […] Fold change was calculated using the Pfaffl method (see Pfaffl et al., Nucleic Acids Res., 2001, 29:e45).
Without wishing to be bound by theory, it was hypothesized that a subset of these compounds cured nematode infection by directly activating the innate immune response of the animal. […] First, the inventors studied four C. elegans strains in which the promoter of the nematode immune response genes T24B8.5, F35E12.5, irg-1 and clec-60 were individually fused to GFP, generating transgenes acIs219 (AU78), acIs101(AY101), agIs17(AU133), or agIs26 (AU185), respectively, thereby allowing a visual readout of gene activity in each strain. […]

[2] = tested on: C. elegans infected with E. faecalis; assay: Automated infection assay for primary compound screening (SYTOX staining, CELLPROFILER)
Procedure: In general, the area of each well that is SYTOX-positive in the fluorescence image is measured and normalized by the total area occupied by all worms, which is quantified in the bright field image. This typically requires illumination correction to flatten lighting abnormalities, adaptive thresholding, and size- and contrast-based filters and masks to exclude debris and other artifacts. By calculating the ratio of the fluorescent area (which corresponds to the area occupied by dead worms) to the total area occupied by all worms, one can accurately determine the number of dead worms in each well. […] In a well where the worms are rescued by ampicillin treatment, 3 of the 14 worms were dead based on manual scoring. The ratio of the fluorescent area to the area occupied by all worms obtained by the CELLPROFILER analysis is correspondingly low at 0.12.
as §1, §2, §3
After 5 days, the bacteria and liquid media in the assay plates were removed as described below. First, the bacteria were re-suspended by shaking on the MIXMATE for 15 seconds at 1,800 rpm, the sealing membrane was removed, and the worms were allowed to settle to the bottom of the wells for 3 minutes. […]

Structure (SMILES) | minimal effective concentration [1] [µg/mL] | immune reporter induction clec-60::GFP (clec-60::GFP) | curing activity in the primary screen ([2]; primary screen) | retest in secondary screen ([2]; secondary experiment)
NNc1ccc2c(Cl)cc(Cl)c(O)c2n1 [Compound 11] | 0.2 | + |  | 
Cc1ccc(Nc2nc(N)c3ccccc3n2)cc1Cl [Compound 26] |  |  | cured infected C. elegans | did not re-test
